Results published in patent US5962502A, “Polyamidic acid derivatives with antigastrin activity, a method for their preparation, and their pharmaceutical use” (priority 1993, dated 1999).
Several values for one entry are separate records, joined by “and”; a condition that tells them apart may be missing. Equal entries are not always repeated.

Key:
[1] = target: T1, gastrin receptors or type-B cholecystokinin (CCK-B) receptors (Oryctolagus cuniculus, UniProt P46627); test: Inhibition of the gastrin-induced increase of cytosolic calcium in rabbit gastric mucous-membrane cells (Fura 2); assay type: cell-based; conditions: for Ratio IC50 Binding cortex / IC50 (gastric mucous cells): binding values taken from Table 3; for CCK-B-antagonistic activity IC50 (II): data taken from Table 4 (rabbit gastric mucous cells), reprinted in Table 6; for IC50, inhibition of the increase of cytosolic calcium: rabbit gastric mucous cells enriched in parietal cells, gastrin 5×10^-8
T1 construct: Rabbit gastric mucous-membrane cells were prepared by conventional techniques; endogenous in cells; host or cells: freshly isolated rabbit gastric mucosal cells, enriched by elutriation to about 70% parietal cells
T1 sequence (P46627 1-452): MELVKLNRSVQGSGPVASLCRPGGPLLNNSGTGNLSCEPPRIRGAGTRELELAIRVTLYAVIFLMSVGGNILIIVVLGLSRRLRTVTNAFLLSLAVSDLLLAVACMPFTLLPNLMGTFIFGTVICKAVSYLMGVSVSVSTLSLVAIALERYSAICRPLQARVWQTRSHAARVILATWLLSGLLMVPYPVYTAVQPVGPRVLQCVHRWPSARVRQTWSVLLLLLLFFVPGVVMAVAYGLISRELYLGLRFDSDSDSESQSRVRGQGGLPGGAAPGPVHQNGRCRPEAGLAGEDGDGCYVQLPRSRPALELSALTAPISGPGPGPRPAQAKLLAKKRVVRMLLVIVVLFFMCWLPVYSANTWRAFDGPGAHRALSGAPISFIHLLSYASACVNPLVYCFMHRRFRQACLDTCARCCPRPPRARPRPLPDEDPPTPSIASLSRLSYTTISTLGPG
How it was run: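 Enzymatically dispersed (collagenase/pronase) rabbit gastric mucosal cells, loaded with Fura 2, were suspended at 0.8×10^6/ml in HEPES-buffered saline at 37 °C with stirring. Gastrin-induced cytosolic Ca²⁺ rise was measured with and without compound by fluorescence (excitation 340/380 nm, emission 505 nm).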

[2] = system: acid secretion induced by pentagastrin; test: Acid secretion induced by pentagastrin in the anaesthetized rat; assay type: in vivo; conditions: for ED50: iv, 1 h, I.V. bolus, pentagastrin 30 mcg/kg/h, read-out: Activity (ID50), inhibition of the acid secretion induced by pentagastrin; for antigastrin activity relative to the diastereoisomer at the carbon atom (**): pentagastrin-induced acid secretion

Structure (SMILES): O=C(CC[C@@H](NC(=O)c1cc(Cl)cc(Cl)c1)C(=O)N1CCC2(CCCC2)CC1)N[C@H](Cc1ccccc1)C(=O)O [Compound 9, (R,R)-1[(1-carboxy-2-phenylethyl)amino]-1 oxo-5-(8-azaspiro[4.5]decan-8-yl)-4-(3,5-dichloro-benzoylamino)-5-oxopentanoic acid]
- Ratio IC50 Binding cortex / IC50 (gastric mucous cells) [1]: 3.0
- CCK-B-antagonistic activity IC50 (II) [1]: 50 nM
- IC50, inhibition of the increase of cytosolic calcium [1]: 50 nM
- ED50 [2]: 12.3 mg/kg and 22.6 µmol/kg
- antigastrin activity relative to the diastereoisomer at the carbon atom (**) [2]: about twice

Structure (SMILES): O=C(CC[C@@H](NC(=O)c1cc(Cl)cc(Cl)c1)C(=O)N1CCC2(CCCC2)CC1)N[C@H](Cc1c[nH]c2ccccc12)C(=O)O [Compound 21]
- Ratio IC50 Binding cortex / IC50 (gastric mucous cells) [1]: 4.0
- CCK-B-antagonistic activity IC50 (II) [1]: 10 nM
- IC50 order of magnitude, peripheral antigastrin activity ([1]; rabbit gastric mucous cells): nanomolar order of magnitude
- IC50, inhibition of the increase of cytosolic calcium [1]: 10 nM
- ED50 [2]: 7.9 mg/kg and 12.6 µmol/kg
- antigastrin activity relative to the diastereoisomer at the carbon atom (**) [2]: almost the same antigastrin activity
